Values after ≈ are worked out from the molar mass of the structure shown. Read-outs that look alike come from different tables or passages of the source.
How the values were obtained:
[1] = tested on: HT-29 (colorectal carcinoma); experiment: In vitro cytotoxic activity (propidium iodide GI50); type: cell-based; settings: Homo sapiens, 96 hrs
M. Luteus ATCC ™ 9341 = experiment: MIC broth dilution, antibacterial activity; type: cell-based; settings: Micrococcus luteus, ATCC9341, MH medium
C. diphtheriae HER1356 = experiment: MIC broth dilution, antibacterial activity; type: cell-based; settings: Corynebacterium diphtheriae; C. diphtheriae HER1356 (strain C7); MH medium
C. difficile ATCC ™ 9689 = experiment: microbe, parasite or virus in culture; type: cell-based, Clostridium difficile; settings: Clostridioides difficile, ATCC9689
Sheep red blood cells = experiment: In vitro toxicity: hemolytic activity; type: cell-based; settings: 2 hrs at 37° C., prepared in DMSO
Description: In vitro toxicity: Sheep red blood cells were exposed to Compound 1 for 2 hrs at 37° C. at concentrations ranging from 2 to 64 μg/mL. Hemolytic activity was determined by monitoring the amount of hemoglobin released spectrophotometrically.

[2] = tested on: PC-3 (prostate adenocarcinoma); experiment: In vitro cytotoxic activity (propidium iodide GI50); type: cell-based; settings: 96 hrs
[3] = tested on: Enterococcus faecalis ATCC ™ 51299 (VRE); experiment: MIC broth dilution, antibacterial activity; type: cell-based; settings: BHI+ medium
[4] = tested on: S. aureus MRS3 ATCC ™ 700699 (MRSA-hVISA); experiment: MIC broth dilution, antibacterial activity; type: cell-based; settings: Staphylococcus aureus, MH medium, 35° C., 16 to 20 hours
[5] = tested on: Enterococcus faecalis ATCC ™ 29212 (VSE); experiment: MIC broth dilution, antibacterial activity; type: cell-based; settings: ATCC29212, BHI+ medium
[6] = tested on: S. pneumoniae LSPQ 3412 (Penicillin sensitive); experiment: MIC broth dilution, antibacterial activity; type: cell-based; settings: Streptococcus pneumoniae, MH + 2% lysed horse blood
[7] = tested on: S. pneumoniae LSPQ 3349 (Penicillin resistant); experiment: MIC broth dilution, antibacterial activity; type: cell-based; settings: Streptococcus pneumoniae, MH + 2% lysed horse blood
[8] = In vivo acute toxicity (MTD); set-up: species or system CD-1 nu/nu mice; settings: CD-1 nu/nu, mouse, saline with 10% EtOH and 7.5% polysorbate 80, read-out: maximum tolerated dose (MTD)
Description: In vivo toxicity: The acute toxicity in CD-1 nu/nu mice of Compound 1 was determined in a saline solution comprising 10% EtOH and 7.5% polysorbate 80. When given i.p., the maximum tolerated dose (MTD) was ≧5 mg/kg. The MTD was 2.5 mg/kg when Compound 1 was administered i.v.

[9] = tested on: human MX-1 breast carcinoma xenograft; experiment: In vivo efficacy in human breast cancer xenograft model; set-up: species or system Harlan female athymic nude mice
Description: The antitumor activity of Compound 1 was tested in vivo in a human MX-1 breast carcinoma model in mice, formulated in 10% ethanol, 7.5% ethanolic polysorbate 80 (1 g/mL in ethanol), and 82.5% saline. Harlan female athymic nude mice (12 weeks of age on Day 1 (D1)) were used for this study. Human MX-1 carcinoma was maintained in athymic nude mice by serial engraftment. A tumor fragment (1 mm^3) was implanted subcutaneously into the right flank of each test mouse. Tumors were monitored twice weekly and then daily as their mean volume approached 80-120 mm^3.
On D1, animals were sorted into treatment groups 1 to 4 (groups 1 to 3: 9 mice; group 4:10 mice), with tumor sizes of 63-144 mm^3 and group mean tumor sizes of about 99 mm^3. Tumor volumes were calculated as (width^2×length) divided by 2. Tumor weight was estimated with the assumption that 1 mg is equivalent to 1 mm^3 of tumor volume.
Starting on Day 1, each group was treated with dosing volumes of 0.2 mL/20-g mouse in Groups 1 and 2, and 0.1 mL/20-g mouse for Groups 3 and 4, scaled to the body weight of each animal, and according to the following protocol:
Tumor measurements were taken twice weekly using calipers and were converted to tumor weight. Tumor weight was estimated with the assumption that 1 mg is equivalent to 1 mm^3 of tumor volume (tumor volume was determined as above). Body weights were also recorded daily for Day 1 to 5, and then twice weekly.
Each animal was euthanized when its neoplasm reached the predetermined endpoint size (1,500 mm^3). The “time to endpoint” (TTE) for each mouse was calculated by the following equation:
[formula] where “TTE” is expressed in days, “endpoint volume” is in mm^3, “b” is the intercept, and “m” is the slope of the line obtained by linear regression of a log-transformed tumor growth data set. The data set comprised the first observation that exceeded the study endpoint volume and the three consecutive observations that immediately preceded the attainment of the endpoint volume.
Treatment efficacy was determined from “tumor growth delay” (TGD), which is defined as the increase in “T” the median TTE for a treatment group compared to “C” the median for control group 1: TGD=T−C, expressed in days, or as a percentage of the median TTE of the control group (% TGD=(TGD/C)×100).
The “percentage of tumor growth inhibition” (TGI) is calculated as:
[formula] wherein MTVtreated and MTVvehicle are respectively the “median tumor volume” for the animals treated with Compound 1 and animals receiving the vehicle, on day 18 and day 0. Two-tailed statistical analyses were done using GraphPad Prism™ software.
The “MTV(n)” is defined as the median tumor volume on Day 53 in the number of animals remaining, n, whose tumors have not attained endpoint volume.

SF-268 (CNS) = experiment: In vitro cytotoxic activity (propidium iodide GI50); type: cell-based; settings: Homo sapiens, 96 hrs
[10] = tested on: S. aureus ATCC ™ 6538P (MSSA); experiment: MIC broth dilution, antibacterial activity; type: cell-based; settings: Staphylococcus aureus, MH medium, 35° C., 16 to 20 hours
[11] = tested on: MDA-MB-231 (mammary gland adenocarcinoma); experiment: In vitro cytotoxic activity (propidium iodide GI50); type: cell-based; settings: Homo sapiens, 96 hrs
[12] = tested on: HUVEC (human umbilical vein endothelial cells); experiment: as above; type: cell-based; settings: 72 hours
B. subtilis ATCC ™ 23857 = experiment: MIC broth dilution, antibacterial activity; type: cell-based; settings: Bacillus subtilis, ATCC23857, BHI+ medium
C. perfringens HER1390 = experiment: microbe, parasite or virus in culture; type: cell-based; settings: Clostridium perfringens
[13] = tested on: Candida albicans ATCC™10231; experiment: Antifungal activity, NCCLS M27-A broth dilution; type: cell-based; settings: ATCC10231, after 48 hours, RPMI 1640
Description: Testing of antifungal activity was performed according to NCCLS method (NCCLS. Reference Method for Broth Dilution Antifungal Susceptibility Testing of Yeasts; Approved Standard. NCCLS document M27-A (ISBN 1-56238-328-0). NCCLS, 940 West Valley Road, Suite 1400, Wayne, Pa. 19087-1898 USA). Compound 1 was prepared as 100× stock solutions in DMSO, with concentrations ranging from 3.2 mg/mL to 0.003 mg/mL (a two-fold dilution series over 11 points). An aliquot of each 100× stock solution was diluted 50-fold in test medium described below to give a set of eleven (11) 2× solutions. 50 μL of each of the eleven 2× solutions was aliquoted into the corresponding well of a 12-well row, with the final well reserved for medium alone control. Inoculum density for the Candida albicans ATCC™10231 indicator strain was adjusted to OD600=0.1 in 5 mL 0.85% saline, then further diluted 1/1000 in RPMI 1640 medium. 50 μL of the final dilution (in test medium) of each indicator strain was added to each well of a 12-well row. This brings the final dilution of the test article or control compound in solution to 1×. The final inoculum was approximately 5×10^4 CFU/ml.

[14] = tested on: S. epidermidis ATCC ™ 12228; experiment: MIC broth dilution, antibacterial activity; type: cell-based; settings: Staphylococcus epidermidis, ATCC12228, MH medium, 35° C., 16 to 20 hours

| SMILES | GI50 [1] | MIC (M. Luteus ATCC ™ 9341) | MIC (C. diphtheriae HER1356) | MIC (C. difficile ATCC ™ 9689) | GI50 [2] | MIC [6] | MIC [7] | GI50 (SF-268 (CNS)) | GI50 [11] | MIC (B. subtilis ATCC ™ 23857) | MIC (C. perfringens HER1390) | other results |
| --- | --- | --- | --- | --- | --- | --- | --- | --- | --- | --- | --- | --- |
| CCC1OC(O)(C(C)(O)C(=O)NC2C(=O)N3NCCCC3C(=O)N(O)CC(=O)N3NCCCC3C(=O)N3CCC(C)(O)C3C(=O)N(O)C(C(C)C)C(=O)OC2C(C)C)CCC1CC(C)C (centres unmarked) [Compound 1] | 37 nM | 0.063 µg/mL (≈ 0.0681 µM) | < 0.008 µg/mL | < 0.008 µg/mL | 66 nM | 0.156 µg/mL | 0.031 µg/mL | 25 nM | 28 nM | 0.004 µg/mL (≈ 0.00432 µM) | < 0.008 µg/mL | hemolytic activity (concentration) (Sheep red blood cells): 12.8 µM; hemolytic activity (concentration) (Sheep red blood cells; 2 to 64 μg/mL tested): 11.8 µg/mL; MIC [3]: 1 µg/mL (≈ 1.08 µM); MIC [4]: 0.5 µg/mL (≈ 0.54 µM); MIC [5]: 0.5 µg/mL (≈ 0.54 µM); MTD ([8]; ip): ≥ 5 mg/kg; MTD ([8]; iv): 2.5 mg/kg; percentage of tumor growth inhibition (TGI) ([9]; 1 mg/kg i.p., median tumor volume vs vehicle, day 18): 51.6%; MTV(3), median tumor volume on Day 53 in animals remaining ([9]; 1 mg/kg i.p., n=3 animals not at endpoint volume): 6 mm^3; body weight loss ([9]; 1 mg/kg i.p., on Day 8, mean body weight): 13%; tumor growth delay (TGD) ([9]; 1 mg/kg i.p., when compared with vehicle): 82%; body weight loss during q4d dosing ([9]; period Compound 1 was given once every four days): no severe body weight loss; MIC [10]: 0.031 µg/mL (≈ 0.0335 µM); GI50 [12]: 19 nM; MIC [13]: 8 µg/mL (≈ 8.65 µM); MIC [14]: 0.094 µg/mL (≈ 0.102 µM) |
| COc1cccc2c1C(=O)c1c(O)c3c(c(O)c1C2=O)C[C@@](O)(C(C)=O)C[C@@H]3O[C@H]1C[C@H](N)[C@H](O)[C@H](C)O1 [Daunorubicin, reference compound] | 20 nM | – | – | – | 11 nM | – | – | 19 nM | 9 nM | – | – | – |
| CN[C@H](CC(C)C)C(=O)N[C@H]1C(=O)N[C@@H](CC(N)=O)C(=O)N[C@H]2C(=O)N[C@H]3C(=O)N[C@H](C(=O)N[C@H](C(=O)O)c4cc(O)cc(O)c4-c4cc3ccc4O)[C@H](O)c3ccc(c(Cl)c3)Oc3cc2cc(c3O[C@@H]2O[C@H](CO)[C@@H](O)[C@H](O)[C@H]2O[C@H]2C[C@](C)(N)[C@H](O)[C@H](C)O2)Oc2ccc(cc2Cl)[C@H]1O [Vancomycin, reference compound] | – | 2 µg/mL (≈ 1.38 µM) | 0.5 µg/mL (≈ 0.345 µM) | 0.25 µg/mL (≈ 0.173 µM) | – | 0.25 µg/mL | 0.5 µg/mL | – | – | 0.25 µg/mL (≈ 0.173 µM) | 0.5 µg/mL (≈ 0.345 µM) | – |

— patent US8076287B2, “Cyclic hexadepsipeptides, processes for their production and their use as pharmaceuticals” (priority 2006, dated 2011)
